Results taken from patent US10150760B2, “Compounds for use in preparing heterocyclic triazole agonists of the APJ receptor” (AMGEN INC., priority 2016, dated 2018).

target: human APJ receptor (Homo sapiens (Human), UniProt P35414); assay: [35S]GTPγS binding assay on membranes from CHO cells stably expressing human APJ receptor; type: biochemical; details: read-out: Activity hAPJ SPA EC50 IP
Procedure, shortened: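 Membranes from CHO cells stably expressing human APJ incubated with ligand, 0.2 nM [35S]GTPγS and WGA SPA beads in HEPES pH 7.5 with 5 mM MgCl2, 200 mM NaCl, 3 μM GDP, 90 min at RT. Nonspecific binding defined with 100 μM GTPγS; EC50 by non-linear regression.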

human APJ receptor, sequence (P35414 whole entry): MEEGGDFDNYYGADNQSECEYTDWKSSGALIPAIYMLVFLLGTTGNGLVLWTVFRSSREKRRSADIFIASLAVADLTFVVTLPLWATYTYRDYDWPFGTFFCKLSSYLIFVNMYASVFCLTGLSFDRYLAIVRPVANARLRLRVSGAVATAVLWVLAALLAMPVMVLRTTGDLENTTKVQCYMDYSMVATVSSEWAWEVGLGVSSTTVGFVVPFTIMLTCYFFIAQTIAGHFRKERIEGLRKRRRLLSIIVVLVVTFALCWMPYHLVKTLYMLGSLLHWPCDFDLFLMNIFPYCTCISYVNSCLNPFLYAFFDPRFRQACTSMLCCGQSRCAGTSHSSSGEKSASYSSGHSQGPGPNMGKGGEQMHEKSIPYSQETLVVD

| Compound | EC50 |
| --- | --- |
| COc1cccc(OC)c1-n1c(NS(=O)(=O)[C@@H](C)[C@H](OC)c2ncc(Cl)cn2)nnc1[C@@H]1CC(=O)N(C)C1 (single isomer, unassigned) [Example 294.0, (1R,2S)-1-(5-chloropyrimidin-2-yl)-N-(4-(2,6-dimethoxyphenyl)-5-((R)-1-methyl-5-oxopyrrolidin-3-yl)-4H-1,2,4-triazol-3-yl)-1-methoxypropane-2-sulfonamide or (1R,2S)-1-(5-chloropyrimidin-2-yl)-N-(4-(2,6-dimethoxyphenyl)-5-((S)-1-methyl-5-oxopyrrolidin-3-yl)-4H-1,2,4-triazol-3-yl)-1-methoxypropane-2-sulfonamide] | 270 nM |
| CO[C@H](c1ncc(Cl)cn1)[C@H](C)S(=O)(=O)Nc1nnc([C@@H]2CC[C@H](C)O2)n1Cc1ccon1 (single isomer, unassigned) [Example 403.0, (1R,2S)-1-(5-chloro-2-pyrimidinyl)-1-methoxy-N-(5-((2S,5S)-5-methyltetrahydro-2-furanyl)-4-(1,2-oxazol-3-ylmethyl)-4H-1,2,4-triazol-3-yl)-2-propanesulfonamide or (1R,2S)-1-(5-chloro-2-pyrimidinyl)-1-methoxy-N-(5-((2R,5R)-5-methyltetrahydro-2-furanyl)-4-(1,2-oxazol-3-ylmethyl)-4H-1,2,4-triazol-3-yl)-2-propanesulfonamide] | 280 nM |
| COc1ccccc1-n1c(NS(=O)(=O)[C@@H](C)[C@H](OC)c2ncc(Cl)cn2)nnc1[C@@H]1CCCO1 [Example 240.0, (1R,2S)-1-(5-chloro-2-pyrimidinyl)-1-methoxy-N-(4-(2-methoxyphenyl)-5-((2S)-tetrahydro-2-furany1)-4H-1,2,4-triazol-3-y1)-2-propanesulfonamide] | 1.3 nM |
| (1R,2S)-N-(5-((R)-2,3-dihydrobenzofuran-3-yl)-4-(2,6-dimethoxyphenyl)-4H-1,2,4-triazol-3-yl)-1-methoxy-1-(5-methylpyrimidin-2-yl)propane-2-sulfonamide or (1R,2S)-N-(5-((S)-2,3-dihydrobenzofuran-3-yl)-4-(2,6-dimethoxyphenyl)-4H-1,2,4-triazol-3-yl)-1-methoxy-1-(5-methylpyrimidin-2-yl)propane-2-sulfonamide [Example 238.0] | 810 nM |
| COc1ncnc(OC)c1-n1c(NS(=O)(=O)[C@@H](C)[C@H](C)c2ncc(Cl)cn2)nnc1[C@H]1CCOC1 (single isomer, unassigned) [Example 94.0, (2S,3R)-3-(5-chloropyrimidin-2-yl)-N-(4-(4,6-dimethoxypyrimidin-5-yl)-5-((R)-tetrahydrofuran-3-yl)-4H-1,2,4-triazol-3-yl)butane-2-sulfonamide or (2S,3R)-3-(5-chloropyrimidin-2-yl)-N-(4-(4,6-dimethoxypyrimidin-5-yl)-5-((S)-tetrahydrofuran-3-yl)-4H-1,2,4-triazol-3-yl)butane-2-sulfonamide] | 190 nM |
| (1R,2S)-1-(5-chloropyrimidin-2-yl)-N-(4-(4,6-dimethoxypyrimidin-5-yl)-5-((R)-5,5-dimethyltetrahydrofuran-3-yl)-4H-1,2,4-triazol-3-yl)-1-methoxypropane-2-sulfonamide or (1R,2S)-1-(5-chloropyrimidin-2-yl)-N-(4-(4,6-dimethoxypyrimidin-5-yl)-5-((S)-5,5-dimethyltetrahydrofuran-3-yl)-4H-1,2,4-triazol-3-yl)-1-methoxypropane-2-sulfonamide [Example 316.0] | 26 nM |
| (2S,3R)-3-(5-chloropyrimidin-2-yl)-N-(4-(3,5-dibromo-2,6-dimethoxyphenyl)-5-((R)-tetrahydrofuran-3-yl)-4H-1,2,4-triazol-3-yl)butane-2-sulfonamide or (2S,3R)-3-(5-chloropyrimidin-2-yl)-N-(4-(3,5-dibromo-2,6-dimethoxyphenyl)-5-((S)-tetrahydrofuran-3-yl)-4H-1,2,4-triazol-3-yl)butane-2-sulfonamide [Example 331.0] | 3500 nM |
| COc1cccc(OC)c1-n1c(NS(=O)(=O)[C@@H](C)[C@H](C)c2ncc(C)cn2)nnc1[C@H]1CCCOC1 (single isomer, unassigned) [Example 58.0, (2S,3R)-N-(4-(2,6-dimethoxyphenyl)-5-((R)-tetrahydro-2H-pyran-3-yl)-4H-1,2,4-triazol-3-yl)-3-(5-methylpyrimidin-2-yl)butane-2-sulfonamide or (2S,3R)-N-(4-(2,6-dimethoxyphenyl)-5-((S)-tetrahydro-2H-pyran-3-yl)-4H-1,2,4-triazol-3-yl)-3-(5-methylpyrimidin-2-yl)butane-2-sulfonamide] | 120 nM |
| COc1cccc(OC)c1-n1c(NS(=O)(=O)[C@@H](C)[C@@H](OC(C)C)c2ncc(Cl)cn2)nnc1[C@H]1CCC(=O)N1 (single isomer, unassigned) [Example 399.0, (1S,2S)-1-(5-chloro-2-pyrimidinyl)-N-(4-(2,6-dimethoxyphenyl)-5-((2R)-5-oxo-2-pyrrolidinyl)-4H-1,2,4-triazol-3-yl)-1-(2-propanyloxy)-2-propanesulfonamide or (1S,2S)-1-(5-chloro-2-pyrimidinyl)-N-(4-(2,6-dimethoxyphenyl)-5-((2S)-5-oxo-2-pyrrolidinyl)-4H-1,2,4-triazol-3-yl)-1-(2-propanyloxy)-2-propanesulfonamide] | 470 nM |
| CO[C@H](c1ncc(Cl)cn1)[C@H](C)S(=O)(=O)Nc1nnc([C@H]2COCCO2)n1C(C)C (single isomer, unassigned) [Example 302.0, (1R,2S)-N-(5-((S)-1,4-dioxan-2-yl)-4-isopropyl-4H-1,2,4-triazol-3-yl)-1-(5-chloropyrimidin-2-yl)-1-methoxypropane-2-sulfonamide or (1R,2S)-N-(5-((R)-1,4-dioxan-2-yl)-4-isopropyl-4H-1,2,4-triazol-3-yl)-1-(5-chloropyrimidin-2-yl)-1-methoxypropane-2-sulfonamide] | 710 nM |
| COc1ncnc(OC)c1-n1c(NS(=O)(=O)[C@@H](C)[C@H](OC)c2ncc(Cl)cn2)nnc1[C@H]1CCCOC1 (single isomer, unassigned) [Example 92.0, (1R,2S)-1-(5-chloropyrimidin-2-yl)-N-(4-(4,6-dimethoxypyrimidin-5-yl)-5-((S)-tetrahydro-2H-pyran-3-yl)-4H-1,2,4-triazol-3-yl)-1-methoxypropane-2-sulfonamide or (1R,2S)-1-(5-chloropyrimidin-2-yl)-N-(4-(4,6-dimethoxypyrimidin-5-yl)-5-((R)-tetrahydro-2H-pyran-3-yl)-4H-1,2,4-triazol-3-yl)-1-methoxypropane-2-sulfonamide] | 42 nM |
| (1S,2S)-N-(4-(4,6-dimethoxypyrimidin-5-yl)-5-((R)-tetrahydrofuran-3-yl)-4H-1,2,4-triazol-3-yl)-1-(5-fluoropyrimidin-2-yl)-1-isopropoxypropane-2-sulfonamide or (1S,2S)-N-(4-(4,6-dimethoxypyrimidin-5-yl)-5-((S)-tetrahydrofuran-3-yl)-4H-1,2,4-triazol-3-yl)-1-(5-fluoropyrimidin-2-yl)-1-isopropoxypropane-2-sulfonamide [Example 322.0] | 310 nM |
